pIC50: −log10 of the molar value.
Each compound was assayed against CDK12/CycK (Homo sapiens, UniProt Q9NYV4) (assay: CDK12/CycK high ATP kinase assay (TR-FRET, 2 mM ATP)). Conditions: 2 mM ATP (high ATP); median; read-out: CDK12/CyclinK, 2 mM ATP (high ATP), IC50-[mol/l] (median).
Type: biochemical
Method in brief: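 His-tagged human CDK12/CycK (~0.75 nM) pre-incubated 15 min with compound, then 60 min at 22 °C with 2 mM ATP and 1 µM biotinylated peptide (HEPES pH 7.5, 20 mM MgCl2). EDTA stop; phospho-Ser62 antibody/Eu anti-rabbit and streptavidin-XL665 TR-FRET, 665/620 nm ratio normalised to give IC50.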

CDK12/CycK, sequence (Q9NYV4 with tags, fused parts or gaps): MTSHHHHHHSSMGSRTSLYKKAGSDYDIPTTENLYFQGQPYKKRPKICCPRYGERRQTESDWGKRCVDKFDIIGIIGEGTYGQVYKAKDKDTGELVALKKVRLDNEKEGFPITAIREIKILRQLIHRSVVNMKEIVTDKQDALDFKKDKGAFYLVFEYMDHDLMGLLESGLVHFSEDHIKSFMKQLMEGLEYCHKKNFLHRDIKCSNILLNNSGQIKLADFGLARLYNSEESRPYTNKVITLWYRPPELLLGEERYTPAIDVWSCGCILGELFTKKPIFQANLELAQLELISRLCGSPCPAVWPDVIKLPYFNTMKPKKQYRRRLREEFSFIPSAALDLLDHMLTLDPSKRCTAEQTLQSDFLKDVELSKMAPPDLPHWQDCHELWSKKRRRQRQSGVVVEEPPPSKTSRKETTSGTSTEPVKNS
CDK12/CycK, sequence (O75909 1-300 partner limits assumed): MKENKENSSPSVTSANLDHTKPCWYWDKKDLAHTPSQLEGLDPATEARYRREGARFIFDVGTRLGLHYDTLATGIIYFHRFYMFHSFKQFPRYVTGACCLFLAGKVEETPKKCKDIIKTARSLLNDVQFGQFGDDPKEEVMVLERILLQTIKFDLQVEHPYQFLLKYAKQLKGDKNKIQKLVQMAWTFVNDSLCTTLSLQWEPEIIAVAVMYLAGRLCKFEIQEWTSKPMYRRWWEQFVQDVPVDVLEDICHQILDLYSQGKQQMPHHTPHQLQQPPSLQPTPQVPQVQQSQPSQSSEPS

Q: How did the pIC50 turn out when `FC(F)n1cc(-c2cnn3c(NCc4nc5cc(Cl)c(Cl)cc5[nH]4)nc(N4CCOCC4)nc23)cn1` [Example 423, N-[(5,6-dichloro-1H-benzimidazol-2-yl)methyl]-8-[1-(difluoromethyl)-1H-pyrazol-4-yl]-2-(morpholin-4-yl)pyrazolo[1,5-a][1,3,5]triazin-4-amine] was run?
A: < 4.89

Q: `Brc1cnn2c(NCc3nnc(-c4ccccc4)[nH]3)nc(N3CCCCC3)nc12` [Example 49, 8-bromo-N-[(5-phenyl-4H-1,2,4-triazol-3-yl)methyl]-2-(piperidin-1-yl)pyrazolo[1,5-a][1,3,5]triazin-4-amine] was tested. Which pIC50 did it give?
A: 5.21

Q: How did the pIC50 turn out when `Cc1cnn2c(NCc3nc4ccccc4[nH]3)nc(N(C)CC(C)(C)O)nc12` [Example 397, 1-[(4-{[(1H-benzimidazol-2-yl)methyl]amino}-8-methylpyrazolo[1,5-a][1,3,5]triazin-2-yl)(methyl)amino]-2-methylpropan-2-ol] was run?
A: < 4.76

Q: `O=C(O)C(F)(F)F.c1ccc2[nH]c(CNc3nc(N4CCOCC4)nc4c(-c5cncs5)cnn34)nc2c1` [Example 441, trifluoroacetic acid-N-[(1H-benzimidazol-2-yl)methyl]-2-(morpholin-4-yl)-8-(1,3-thiazol-5-yl)pyrazolo[1,5-a][1,3,5]triazin-4-amine (1/1)] was tested. Which pIC50 did it give?
A: 5.38

Q: `CN(C)CCOc1nc(NCc2nc3ccccc3[nH]2)n2ncc(Br)c2n1` [Example 399, N-[(1H-benzimidazol-2-yl)methyl]-8-bromo-2-[2-(dimethylamino)ethoxy]pyrazolo[1,5-a][1,3,5]triazin-4-amine] was tested. Which pIC50 did it give?
A: < 4.70

Q: How did the pIC50 turn out when `CC1(C)CN(c2nc(NCc3nc4ccccc4[nH]3)n3ncc(Br)c3n2)CCO1` [Example 58, N-[(1H-benzimidazol-2-yl)methyl]-8-bromo-2-(2,2-dimethylmorpholin-4-yl)pyrazolo[1,5-a][1,3,5]triazin-4-amine] was run?
A: 5.19

Q: How did the pIC50 turn out when `N#Cc1cccc(-c2nnc(CNc3nc(N4CCOCC4)nc4c(Br)cnn34)[nH]2)c1` [Example 55, 3-[5-({[8-bromo-2-(morpholin-4-yl)pyrazolo[1,5-a][1,3,5]triazin-4-yl]amino}methyl)-4H-1,2,4-triazol-3-yl]benzonitrile] was run?
A: 6.11

Q: `C[C@H]1COCCN1c1nc(NCc2nc3ccccc3[nH]2)n2ncc(Br)c2n1` [Example 57, N-[(1H-benzimidazol-2-yl)methyl]-8-bromo-2-[(3S)-3-methylmorpholin-4-yl]pyrazolo[1,5-a][1,3,5]triazin-4-amine] was tested. Which pIC50 did it give?
A: 5.98

Q: With `CC(C)c1cnn2c(NCc3ncc(-c4ccccc4)[nH]3)nc(N3CCCCC3)nc12` [Example 36, N-[(5-phenyl-1H-imidazol-2-yl)methyl]-2-(piperidin-1-yl)-8-(propan-2-yl)pyrazolo[1,5-a][1,3,5]triazin-4-amine] as the compound, how does the pIC50 read?
A: < 4.70

Q: `CCc1cnn2c(NCc3nc4ccccc4[nH]3)nc(N3CCOCC3)nc12` [Example 431, N-[(1H-benzimidazol-2-yl)methyl]-8-ethyl-2-(morpholin-4-yl)pyrazolo[1,5-a][1,3,5]triazin-4-amine] was tested. Which pIC50 did it give?
A: 5.55

Q: `COc1cccc2nc(CNc3nc(N4CCN(C)CC4)nc4c(-c5nccs5)cnn34)[nH]c12` [Example 416, N-[(7-methoxy-1H-benzimidazol-2-yl)methyl]-2-(4-methylpiperazin-1-yl)-8-(1,3-thiazol-2-yl)pyrazolo[1,5-a][1,3,5]triazin-4-amine] was tested. Which pIC50 did it give?
A: < 4.70

Q: How did the pIC50 turn out when `NCCOCCOCCNc1nc(NCc2nc3ccccc3[nH]2)n2ncc(Br)c2n1` [Example 412, N2-{2-[2-(2-aminoethoxy)ethoxy]ethyl}-N4-[(1H-benzimidazol-2-yl)methyl]-8-bromopyrazolo[1,5-a][1,3,5]triazine-2,4-diamine] was run?
A: < 5.24

Q: How did the pIC50 turn out when `Cc1cnn2c(NCc3nc4c(F)c(F)ccc4[nH]3)nc(N3CCOCC3)nc12` [Example 392, N-[(4,5-difluoro-1H-benzimidazol-2-yl)methyl]-8-methyl-2-(morpholin-4-yl)pyrazolo[1,5-a][1,3,5]triazin-4-amine] was run?
A: 5.36

Q: `COc1cccc2[nH]c(CNc3nc(N4CCOCC4)nc4c(-c5nccs5)cnn34)nc12` [Example 414, N-[(4-methoxy-1H-benzimidazol-2-yl)methyl]-2-(morpholin-4-yl)-8-(1,3-thiazol-2-yl)pyrazolo [1,5-a][1,3,5]triazin-4-amine] was tested. Which pIC50 did it give?
A: < 5.24

Q: With `Cc1cnn2c(NCc3nc4c(F)c(F)ccc4[nH]3)nc(N3CC4CCC(C3)N4)nc12` [Example 400, 2-(3,8-diazabicyclo[3.2.1]octan-3-yl)-N-[(4,5-difluoro-1H-benzimidazol-2-yl)methyl]-8-methylpyrazolo[1,5-a][1,3,5]triazin-4-amine] as the compound, how does the pIC50 read?
A: < 4.78

Q: `CN1CCN(c2nc(NCc3nc4cc(Cl)c(Cl)cc4[nH]3)n3ncc(-c4cnn(C)c4)c3n2)CC1` [Example 420, N-[(5,6-dichloro-1H-benzimidazol-2-yl)methyl]-2-(4-methylpiperazin-1-yl)-8-(1-methyl-1H-pyrazol-4-yl)pyrazolo[1,5-a][1,3,5]triazin-4-amine] was tested. Which pIC50 did it give?
A: < 4.70

Q: `Cn1cc(-c2cnn3c(NCc4nc5c(F)c(F)ccc5[nH]4)nc(N4CCOCC4)nc23)cn1` [Example 418, N-[(4,5-difluoro-1H-benzimidazol-2-yl)methyl]-8-(1-methyl-1H-pyrazol-4-yl)-2-(morpholin-4-yl)pyrazolo[1,5-a][1,3,5]triazin-4-amine] was tested. Which pIC50 did it give?
A: < 4.70

Q: How did the pIC50 turn out when `CC(C)c1cnn2c(NCc3nnc(-c4ccccc4)[nH]3)nc(N(C)CC(C)(C)O)nc12` [Example 39, 2-methyl-1-{methyl[4-{[(5-phenyl-4H-1,2,4-triazol-3-yl)methyl]amino}-8-(propan-2-yl)pyrazolo[1,5-a][1,3,5]triazin-2-yl]amino}propan-2-ol] was run?
A: 5.33

Q: How did the pIC50 turn out when `Clc1cc2nc(CNc3nc(N4CCOCC4)nc4c(-c5cscn5)cnn34)[nH]c2cc1Cl` [Example 424, N-[(5,6-dichloro-1H-benzimidazol-2-yl)methyl]-2-(morpholin-4-yl)-8-(1,3-thiazol-4-yl)pyrazolo [1,5-a][1,3,5]triazin-4-amine] was run?
A: < 4.70

Q: How did the pIC50 turn out when `COC(C)(C)COc1nc(NCc2nc3ccccc3[nH]2)n2ncc(Br)c2n1` [Example 403, N-[(1H-benzimidazol-2-yl)methyl]-8-bromo-2-(2-methoxy-2-methylpropoxy)pyrazolo[1,5-a][1,3,5]triazin-4-amine] was run?
A: < 4.70

Q: `N#Cc1cccc(-c2c[nH]c(CNc3nc(N4CCOCC4)nc4c(Br)cnn34)n2)c1` [Example 42, 3-[2-({[8-bromo-2-(morpholin-4-yl)pyrazolo[1,5-a][1,3,5]triazin-4-yl]amino}methyl)-1H-imidazol-4-yl]benzonitrile] was tested. Which pIC50 did it give?
A: 6.39

Q: `Brc1cnn2c(NCc3nc4ccccc4[nH]3)nc(OC3CCOCC3)nc12` [Example 405, N-[(1H-benzimidazol-2-yl)methyl]-8-bromo-2-[(oxan-4-yl)oxy]pyrazolo[1,5-a][1,3,5]triazin-4-amine] was tested. Which pIC50 did it give?
A: < 4.70

Q: `CN1CCN(c2nc(NCc3nc4ccccc4[nH]3)n3ncc(CC(F)(F)F)c3n2)CC1` [Example 436, N-[(1H-benzimidazol-2-yl)methyl]-2-(4-methylpiperazin-1-yl)-8-(2,2,2-trifluoroethyl)pyrazolo [1,5-a][1,3,5]triazin-4-amine] was tested. Which pIC50 did it give?
A: < 4.70

Q: With `CCNc1nc(NCc2nnc(-c3ccccc3)[nH]2)n2ncc(C(C)C)c2n1` [Example 38, N^2-ethyl-N^4-[(5-phenyl-4H-1,2,4-triazol-3-yl)methyl]-8-(propan-2-yl)pyrazolo[1,5-a][1,3,5]triazine-2,4-diamine] as the compound, how does the pIC50 read?
A: < 5.24

Q: How did the pIC50 turn out when `CCc1cnn2c(NCc3nc4c(F)c(F)ccc4[nH]3)nc(N3CCOCC3)nc12` [Example 432, N-[(4,5-difluoro-1H-benzimidazol-2-yl)methyl]-8-ethyl-2-(morpholin-4-yl)pyrazolo[1,5-a][1,3,5]triazin-4-amine] was run?
A: 5.64

Q: How did the pIC50 turn out when `C[C@@H]1COCCN1c1nc(NCc2nc3ccccc3[nH]2)n2ncc(Br)c2n1` [Example 56, N-[(1H-benzimidazol-2-yl)methyl]-8-bromo-2-[(3R)-3-methylmorpholin-4-yl]pyrazolo[1,5-a][1,3,5]triazin-4-amine] was run?
A: 5.27

Q: `FC(F)Cc1cnn2c(NCc3nc4ccccc4[nH]3)nc(N3CCOCC3)nc12.O=C(O)C(F)(F)F` [Example 444, trifluoroacetic acid N-[(1H-benzimidazol-2-yl)methyl]-8-(2,2-difluoroethyl)-2-(morpholin-4-yl)pyrazolo[1,5-a][1,3,5]triazin-4-amine] was tested. Which pIC50 did it give?
A: 5.07

Q: With `OC[C@@H]1CCCCN1c1nc(NCc2nc3ccccc3[nH]2)n2ncc(Br)c2n1` [Example 59, [(2S)-1-(4-{[(1H-benzimidazol-2-yl)methyl]amino}-8-bromopyrazolo[1,5-a][1,3,5]triazin-2-yl)piperidin-2-yl]methanol] as the compound, how does the pIC50 read?
A: 6.26

Q: `CC(C)c1cnn2c(NCc3nnc(-c4ccccc4)[nH]3)nc(N3CCOCC3)nc12` [Example 33, 2-(morpholin-4-yl)-N-[(5-phenyl-4H-1,2,4-triazol-3-yl)methyl]-8-(propan-2-yl)pyrazolo[1,5-a][1,3,5]triazin-4-amine] was tested. Which pIC50 did it give?
A: 5.28

Q: `Clc1ccc(-c2nnc(CNc3nc(N4CCOCC4)nc4c(Br)cnn34)[nH]2)cc1` [Example 45, 8-bromo-N-{[5-(4-chlorophenyl)-4H-1,2,4-triazol-3-yl]methyl}-2-(morpholin-4-yl)pyrazolo[1,5-a][1,3,5]triazin-4-amine] was tested. Which pIC50 did it give?
A: 5.66

Q: With `COc1ccccc1-c1nnc(CNc2nc(N3CCN(C)CC3)nc3c(C4CC4(F)F)cnn23)[nH]1` (centres unmarked) [Example 430, 8-(2,2-difluorocyclopropyl)-N-{[5-(2-methoxyphenyl)-4H-1,2,4-triazol-3-yl]methyl}-2-(4-methylpiperazin-1-yl)pyrazolo[1,5-a][1,3,5]triazin-4-amine] as the compound, how does the pIC50 read?
A: < 4.70

Q: `Cc1cnn2c(NCc3nc4ccccc4[nH]3)nc(N3CCOCC3)nc12` [Example 393, N-[(1H-benzimidazol-2-yl)methyl]-8-methyl-2-(morpholin-4-yl)pyrazolo[1,5-a][1,3,5]triazin-4-amine] was tested. Which pIC50 did it give?
A: < 4.70

Source: patent US20230117034A1, “PYRAZOLOTRIAZINES” (Bayer Aktiengesellschaft, priority 2019, published 2023)
